# Laboratory results reported in US20050112573A1, “Method of detecting toxic substance” (priority 2001, published 2005).
# System: yeast genes (level of expressed mRNA)
# Experiment: DNA chip analysis of expressed mRNA of yeast genes after 2 h culture with a toxic chemical substance
# Assay type: cell-based, Saccharomyces cerevisiae S288C
# Procedure, shortened: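 Values are treated-to-control fluorescence ratios from a whole-yeast-genome DNA chip (65° C, over 12 h hybridization) using Cy3/Cy5-labelled cDNA from mRNA. Log-phase S288C cells in YPD at 25° C were exposed 2 h to a toxicant at sublethal, growth-inhibiting concentration.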
substance,measurement,setting,value
γ-hexachlorocyclohexane [(7)],The level of expressed mRNA in the presence of chemical substance/,"yeast gene YAL053W, ratio to control without chemical",0.7
same,The level of expressed mRNA in the presence of chemical substance/The level of expressed mRNA in the absence of chemical substance,yeast gene YAR010C,1.9
same,The level of expressed mRNA in the presence of chemical substance/The level of expressed mRNA in the absence of chemical substance,yeast gene YBL005W-A,1.4
same,The level of expressed mRNA in the presence of chemical substance/The level of expressed mRNA in the absence of chemical substance,yeast gene YBL041W,1.6
same,The level of expressed mRNA in the presence of chemical substance/The level of expressed mRNA in the absence of chemical substance,yeast gene YBL043W,1.5
same,The level of expressed mRNA in the presence of chemical substance/,"yeast gene YBL048W, ratio to control without chemical substance, 2 h culture",1.9
same,The level of expressed mRNA in the presence of chemical substance/The level of expressed mRNA in the absence of chemical substance,yeast gene YBL078C,3.1
same,The level of expressed mRNA in the presence of chemical substance/,"yeast gene YBL107C, ratio to control without chemical substance, 2 h culture",2.1
same,The level of expressed mRNA in the presence of chemical substance/in the absence of chemical substance,yeast gene YBR036C,1.3
same,The level of expressed mRNA in the presence of chemical substance/The level of expressed mRNA in the absence of chemical substance,yeast gene YBR214W,1.1
same,The level of expressed mRNA in the presence of chemical substance/in the absence of chemical substance,yeast gene YBR298C,1.7
same,The level of expressed mRNA in the presence of chemical substance/The level of expressed mRNA in the absence of chemical substance,yeast gene YCL020W,1.5
same,The level of expressed mRNA in the presence of chemical substance/The level of expressed mRNA in the absence of chemical substance,yeast gene YCL027W,1.0
same,The level of expressed mRNA in the presence of chemical substance/The level of expressed mRNA in the absence of chemical substance,yeast gene YCR004C,1.4
same,The level of expressed mRNA in the presence of chemical substance/The level of expressed mRNA in the absence of chemical substance,yeast gene YCR071C,1.4
same,The level of expressed mRNA in the presence of chemical substance/The level of expressed mRNA in the absence of chemical substance,yeast gene YCR088W,1.2
same,The level of expressed mRNA in the presence of chemical substance/The level of expressed mRNA in the absence of chemical substance,yeast gene YDL008W,2.0
same,The level of expressed mRNA in the presence of chemical substance/,"yeast gene YDL072C, ratio to control without chemical",1.8
same,The level of expressed mRNA in the presence of chemical substance/in the absence of chemical substance,yeast gene YDL078C,1.7
same,The level of expressed mRNA in the presence of chemical substance/,"yeast gene YDL204W, ratio to control without chemical",3.2
same,The level of expressed mRNA in the presence of chemical substance/in the absence of chemical substance,yeast gene YDL215C,1.9
same,The level of expressed mRNA in the presence of chemical substance/,"yeast gene YDL222C, ratio to control without chemical",1.0
same,The level of expressed mRNA in the presence of chemical substance/The level of expressed mRNA in the absence of chemical substance,yeast gene YDL238C,1.4
same,The level of expressed mRNA in the presence of chemical substance/The level of expressed mRNA in the absence of chemical substance,yeast gene YDR055W,1.5
same,The level of expressed mRNA in the presence of chemical substance/The level of expressed mRNA in the absence of chemical substance,yeast gene YDR084C,0.9
same,The level of expressed mRNA in the presence of chemical substance/The level of expressed mRNA in the absence of chemical substance,yeast gene YDR085C,4.1
same,The level of expressed mRNA in the presence of chemical substance/The level of expressed mRNA in the absence of chemical substance,yeast gene YDR104C,1.0
same,The level of expressed mRNA in the presence of chemical substance/The level of expressed mRNA in the absence of chemical substance,yeast gene YDR115W,1.6
same,The level of expressed mRNA in the presence of chemical substance/The level of expressed mRNA in the absence of chemical substance,yeast gene YDR259C,2.8
same,The level of expressed mRNA in the presence of chemical substance/in the absence of chemical substance,yeast gene YDR297W,0.6
same,The level of expressed mRNA in the presence of chemical substance/The level of expressed mRNA in the absence of chemical substance,yeast gene YDR315C,1.4
same,The level of expressed mRNA in the presence of chemical substance/,"yeast gene YDR330W, ratio to control without chemical substance, 2 h culture",1.3
same,The level of expressed mRNA in the presence of chemical substance/The level of expressed mRNA in the absence of chemical substance,yeast gene YDR358W,2.8
same,The level of expressed mRNA in the presence of chemical substance/in the absence of chemical substance,yeast gene YDR387C,1.3
same,The level of expressed mRNA in the presence of chemical substance/The level of expressed mRNA in the absence of chemical substance,yeast gene YDR388W,1.1
same,The level of expressed mRNA in the presence of chemical substance/,"yeast gene YDR411C, ratio to control without chemical substance, 2 h culture",2.0
same,The level of expressed mRNA in the presence of chemical substance/The level of expressed mRNA in the absence of chemical substance,yeast gene YDR432W,0.5
same,The level of expressed mRNA in the presence of chemical substance/The level of expressed mRNA in the absence of chemical substance,yeast gene YDR481C,0.7
same,The level of expressed mRNA in the presence of chemical substance/The level of expressed mRNA in the absence of chemical substance,yeast gene YDR510W,1.6
same,The level of expressed mRNA in the presence of chemical substance/,"yeast gene YDR511W, ratio to control without chemical substance, 2 h culture",1.5
same,The level of expressed mRNA in the presence of chemical substance/,"yeast gene YDR545W, ratio to control without chemical substance, 2 h culture",1.2
same,The level of expressed mRNA in the presence of chemical substance/,"yeast gene YEL001C, ratio to control without chemical",1.1
same,The level of expressed mRNA in the presence of chemical substance/The level of expressed mRNA in the absence of chemical substance,yeast gene YEL042W,0.5
same,The level of expressed mRNA in the presence of chemical substance/The level of expressed mRNA in the absence of chemical substance,yeast gene YEL066W,1.8
same,The level of expressed mRNA in the presence of chemical substance/,"yeast gene YER004W, ratio to control without chemical substance, 2 h culture",1.4
same,The level of expressed mRNA in the presence of chemical substance/,"yeast gene YER035W, ratio to control without chemical substance, 2 h culture",1.9
same,The level of expressed mRNA in the presence of chemical substance/The level of expressed mRNA in the absence of chemical substance,yeast gene YER039C,1.3
same,The level of expressed mRNA in the presence of chemical substance/,"yeast gene YER079W, ratio to control without chemical substance, 2 h culture",1.9
same,The level of expressed mRNA in the presence of chemical substance/,"yeast gene YER106W, ratio to control without chemical",1.0
same,The level of expressed mRNA in the presence of chemical substance/The level of expressed mRNA in the absence of chemical substance,yeast gene YER107C,1.0
same,The level of expressed mRNA in the presence of chemical substance/The level of expressed mRNA in the absence of chemical substance,yeast gene YER130C,1.5
same,The level of expressed mRNA in the presence of chemical substance/,"yeast gene YER158C, ratio to control without chemical substance, 2 h culture",1.2
same,The level of expressed mRNA in the presence of chemical substance/,"yeast gene YER163C, ratio to control without chemical substance, 2 h culture",1.5
same,The level of expressed mRNA in the presence of chemical substance/,"yeast gene YER175C, ratio to control without chemical substance, 2 h culture",2.3
same,The level of expressed mRNA in the presence of chemical substance/,"yeast gene YFL006W, ratio to control without chemical substance, 2 h culture",1.0
